ChEMBL document CHEMBL1133572, “Protease inhibitors: current status and future prospects” (J Med Chem, 2000)
pEC50, pIC50, pKi: −log10 of the molar value. Residues, ends and D or L forms follow the SMILES beside them. *: point of attachment. CF3 = FC(F)(F)*; Moc = COC(=O)*

Columns and labels:
Neutrophil elastase = Neutrophil elastase (Homo sapiens, UniProt P08246)
[1] = Oral absorption in monkey; format: ADME; settings: simiiformes, in vivo, read-out: Absorption
[2] = Cmax value at the period of 0-24 hr after 125 mg dose.; format: ADME, organism-based; parameters: dose 125 mg; settings: in vivo
[3] = Oral absorption in rat; format: ADME, organism-based; settings: in vivo, read-out: Absorption
[4] = Oral absorption in ferret; format: ADME, organism-based, Mustela putorius furo; settings: in vivo, read-out: Absorption
[5] = Oral absorption in dog; format: ADME, organism-based, Canis lupus familiaris; settings: in vivo, read-out: Absorption
[6] = Cmax value at the period of 0-24 hr after 259 mg dose.; format: ADME, organism-based; parameters: dose 259 mg; settings: in vivo
Cathepsin D [7] = biological target: T1, Cathepsin D (Homo sapiens, UniProt P07339); assay: Inhibitory concentration against cathepsin D..
[8] = Oral bioavailability against cynomolgus monkeys at the dose of 3 mg/kg.; format: ADME, organism-based, Macaca fascicularis; settings: cynomolgus monkey, in vivo
Renin [9] = biological target: T2, Renin (Homo sapiens, UniProt P00797); assay: Inhibitory concentration against human plasma renin at pH 6.; format: cell-free
T2 sequence (P00797 whole entry): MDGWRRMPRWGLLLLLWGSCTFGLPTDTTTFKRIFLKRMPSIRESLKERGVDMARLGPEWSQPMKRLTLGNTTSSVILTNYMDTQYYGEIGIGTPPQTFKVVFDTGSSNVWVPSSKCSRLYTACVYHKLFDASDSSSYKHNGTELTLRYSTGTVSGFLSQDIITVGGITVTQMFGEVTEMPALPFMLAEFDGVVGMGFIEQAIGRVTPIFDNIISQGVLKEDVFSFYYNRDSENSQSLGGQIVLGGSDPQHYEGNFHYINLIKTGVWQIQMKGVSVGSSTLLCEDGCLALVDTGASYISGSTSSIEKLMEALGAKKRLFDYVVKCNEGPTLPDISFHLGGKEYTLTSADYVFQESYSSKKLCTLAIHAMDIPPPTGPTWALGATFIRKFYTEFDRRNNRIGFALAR

[10] = Inhibitory concentration against Aspartic proteases.
Cathepsin D [11] = biological target: T1, Cathepsin D; assay: Inhibitory concentration against Human cathepsin D.
[12] = The in vivo activity ED50 (oral); format: functional
[13] = oral bioavailability in Hamsters; format: ADME, organism-based; settings: cricetinae, in vivo, read-out: Bioavailabiility
[14] = The in vivo activity ED50 (iv); format: functional
[15] = Cmax value in the period of […] hr after dosing.; format: ADME, organism-based; settings: in vivo
[16] = Cmax value in the period of […] hr after dosing, when administered with ritonavir.; format: ADME, organism-based; settings: in vivo
MT4 = assay: cells; settings: Homo sapiens
Tryptase [17] = biological target: T3, Tryptase (Homo sapiens, UniProt Q9BZJ3+Q15661+Q9NRR2); assay: zinc mediated inhibition in the presence of metal chelating agent EDTA.; format: protein assay
Tryptase [18] = biological target: T3, Tryptase; assay: The compound was tested for the zinc mediated inhibition.; format: protein assay
Oryctolagus cuniculus [19] = assay: Inhibition of thrombosis in rabbits ( ED50 (iv); format: functional
Mus musculus = species on record: Mus musculus; assay: Inhibitory concentration against mice; format: functional
Serine protease 1 = Serine protease 1 (Homo sapiens, UniProt P07477)
Oryctolagus cuniculus [20] = assay: Inhibition of thrombosis in rabbits ( ED50 (po); format: functional
Oryctolagus cuniculus [21] = assay: Inhibition of thrombosis in rabbits ( ED50 (sc); format: functional
[22] = Partition coefficient (logP); format: physicochemical; settings: octanol/water; read-out: logP
[23] = Binding affinity against plasmepsin; parameters: species or system Plasmodium falciparum
[24] = Oral bioavailability in human; format: ADME, organism-based; settings: in vivo
Renin [25] = biological target: T2, Renin
[26] = Binding affinity against Thrombin.
[27] = biological target: T4, Human rhinovirus A protease (Human rhinovirus sp., UniProt Q4U254); assay: Effective concentration against human rhinovirus 3C protease.
T4 sequence (Q4U254 whole entry): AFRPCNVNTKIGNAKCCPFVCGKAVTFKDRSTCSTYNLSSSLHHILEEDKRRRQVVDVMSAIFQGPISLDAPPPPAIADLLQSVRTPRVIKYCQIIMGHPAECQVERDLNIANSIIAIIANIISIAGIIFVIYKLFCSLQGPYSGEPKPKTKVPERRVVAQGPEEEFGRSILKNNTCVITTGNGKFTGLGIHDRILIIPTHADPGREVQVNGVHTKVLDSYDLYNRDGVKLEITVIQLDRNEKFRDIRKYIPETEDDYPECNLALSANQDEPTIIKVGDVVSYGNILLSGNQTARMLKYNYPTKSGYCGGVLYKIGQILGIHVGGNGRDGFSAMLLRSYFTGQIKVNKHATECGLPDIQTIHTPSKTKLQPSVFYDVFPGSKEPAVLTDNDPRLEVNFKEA

[28] = biological target: Cathepsin K (Homo sapiens) (UniProt P43235); assay: Inhibition of Cathepsin K.
Cathepsin D [29] = biological target: T1, Cathepsin D
Plasmepsin II = Plasmepsin II (Plasmodium falciparum, UniProt P46925); assay: Inhibitory concentration for Plasmodium falciparum plasmepsin-2.
Sequence of Plasmepsin II (P46925 whole entry): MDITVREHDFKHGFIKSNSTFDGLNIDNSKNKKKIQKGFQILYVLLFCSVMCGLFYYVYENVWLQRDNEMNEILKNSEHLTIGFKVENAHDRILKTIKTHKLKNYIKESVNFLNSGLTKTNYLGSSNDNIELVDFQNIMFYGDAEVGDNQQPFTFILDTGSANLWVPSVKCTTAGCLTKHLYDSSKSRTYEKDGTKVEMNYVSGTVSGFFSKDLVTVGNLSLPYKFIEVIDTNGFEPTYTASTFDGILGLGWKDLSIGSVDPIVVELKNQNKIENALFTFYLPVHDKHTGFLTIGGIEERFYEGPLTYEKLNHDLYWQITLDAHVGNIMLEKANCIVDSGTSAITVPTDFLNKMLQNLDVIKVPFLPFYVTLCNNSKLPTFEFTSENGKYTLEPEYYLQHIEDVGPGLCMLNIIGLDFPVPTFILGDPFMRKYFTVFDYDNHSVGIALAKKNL

T1 sequence (P07339 65-162 limits assumed): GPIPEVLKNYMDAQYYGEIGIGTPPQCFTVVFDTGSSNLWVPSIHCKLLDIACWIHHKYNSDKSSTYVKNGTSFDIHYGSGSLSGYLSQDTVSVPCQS
T1 sequence (P07339 169-412 limits assumed): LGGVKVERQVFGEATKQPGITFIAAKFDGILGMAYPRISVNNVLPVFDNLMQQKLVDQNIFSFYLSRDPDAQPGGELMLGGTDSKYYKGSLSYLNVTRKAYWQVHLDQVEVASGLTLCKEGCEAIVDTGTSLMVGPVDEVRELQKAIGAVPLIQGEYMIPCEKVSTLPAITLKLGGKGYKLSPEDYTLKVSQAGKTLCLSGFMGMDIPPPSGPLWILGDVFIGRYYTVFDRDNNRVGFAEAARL
Sequence of Cathepsin K (Homo sapiens) (P43235 whole entry): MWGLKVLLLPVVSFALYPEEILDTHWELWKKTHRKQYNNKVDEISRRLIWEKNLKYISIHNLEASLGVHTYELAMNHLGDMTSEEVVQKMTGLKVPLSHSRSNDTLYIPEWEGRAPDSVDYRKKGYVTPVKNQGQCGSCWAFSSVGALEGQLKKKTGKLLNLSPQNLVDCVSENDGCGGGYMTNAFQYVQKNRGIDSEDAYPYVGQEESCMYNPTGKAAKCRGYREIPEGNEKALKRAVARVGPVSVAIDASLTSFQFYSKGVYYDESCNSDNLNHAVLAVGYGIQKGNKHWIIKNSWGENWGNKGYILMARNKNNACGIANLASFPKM
Sequence of Serine protease 1 (P07477 whole entry): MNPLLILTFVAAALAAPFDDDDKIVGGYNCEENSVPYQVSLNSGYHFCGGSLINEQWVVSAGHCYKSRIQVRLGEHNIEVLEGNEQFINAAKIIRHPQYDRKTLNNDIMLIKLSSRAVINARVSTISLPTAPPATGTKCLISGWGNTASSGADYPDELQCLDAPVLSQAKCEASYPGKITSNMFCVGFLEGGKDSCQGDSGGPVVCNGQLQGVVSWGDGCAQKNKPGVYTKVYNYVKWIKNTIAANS
Sequence of Neutrophil elastase (P08246 whole entry): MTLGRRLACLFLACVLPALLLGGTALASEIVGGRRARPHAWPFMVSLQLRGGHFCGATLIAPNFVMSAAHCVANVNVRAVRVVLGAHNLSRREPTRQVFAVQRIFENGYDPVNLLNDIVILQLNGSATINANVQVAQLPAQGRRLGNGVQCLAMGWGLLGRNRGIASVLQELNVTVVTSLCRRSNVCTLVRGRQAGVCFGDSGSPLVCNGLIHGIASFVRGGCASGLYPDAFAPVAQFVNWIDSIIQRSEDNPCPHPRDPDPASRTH

Structure (SMILES): CC(SC(=O)c1cccs1)C(=O)NC1CCSC1 (centres undefined)
- pKi (Neutrophil elastase): 5.86

Structure (SMILES): CC(C)C[C@H](O)[C@H](O)[C@H](CC1CCCCC1)NC(=O)[C@H](Cc1cscn1)NC(=O)[C@H](Cc1ccccc1)CS(=O)(=O)N1CCN(C)CC1 [ZANKIREN]
- Fa [1]: 8%
- Cmax [2]: 430 ng/mL
- Fa [3]: 24%
- Fa [4]: 32%
- Fa [5]: 53%
- Cmax [6]: 1150 ng/mL

Structure (SMILES): CC(C)C[C@H](O)[C@H](O)[C@H](CC1CCCCC1)NC(=O)[C@@H](CC(=O)N(CC(=O)N(C)CCc1ccccn1)CC1CCCCC1)Cc1csc(N)n1
- pIC50 (Cathepsin D [7]): 6.26
- bioavailability [8]: 40%
- pIC50 (Renin [9]): 8.85

Structure (SMILES): CC(C)C[C@H](NC(=O)[C@H](C)NC(=O)C[C@H](O)[C@H](Cc1ccccc1)NC(=O)[C@@H](NC(=O)c1ccccn1)C(C)C)C(N)=O
- pIC50 [10]: 9.25
- pIC50 (Cathepsin D [11]): 7.68

Structure (SMILES): COC(=O)N[C@H](C(=O)N1CCC[C@H]1C(=O)N[C@H](C(=O)C(F)(F)F)C(C)C)C(C)C (Moc-Val-Pro-Val-CF3)
- ED50 [12]: 2 mg/kg
- bioavailability [13]: 75%
- ED50 [14]: 0.51 mg/kg

Structure (SMILES): Cc1cccc(C)c1OCC(=O)N[C@@H](Cc1ccccc1)[C@@H](O)C[C@H](Cc1ccccc1)NC(=O)[C@H](C(C)C)N1CCCNC1=O [LOPINAVIR]
- Cmax at 8 h [15]: < 100 ng/mL
- Cmax at 8 h [16]: 5500 ng/mL
- pEC50 (MT4): 7.00

Structure (SMILES): N=C(N)c1ccc2nc(Cc3nc4ccc(C(=N)N)cc4[nH]3)[nH]c2c1.[Zn]
- Ki (Tryptase [17]): 2.5 µM
- Ki (Tryptase [18]): 0.05 µM

Structure (SMILES): CC(=N)N1CC[C@H](Oc2ccc([C@H](Cc3ccc4ccc(C(=N)N)cc4c3)C(=O)O)cc2)C1 [DX-9065A]
- ED50 (Oryctolagus cuniculus [19]): 0.03 mg/kg
- ED50 (Mus musculus): 56 mg/kg
- pKi (Serine protease 1): 6.21
- ED50 (Oryctolagus cuniculus [20]): 50.5 mg/kg
- ED50 (Oryctolagus cuniculus [21]): 0.3 mg/kg

Structure (SMILES): COc1ccc(CCN(C[C@H](O)[C@H](Cc2ccccc2)NC(=O)COc2cccc(Cl)c2)C(=O)C2CCNCC2)cc1
- logP [22]: 3.71
- pKi [23]: 8.37

Structure (SMILES): CC(C)(C)S(=O)(=O)C[C@@H](Cc1ccccc1)C(=O)N[C@@H](Cc1cnc[nH]1)C(=O)N[C@@H](CC1CCCCC1)[C@@H](O)[C@@H](O)C1CC1
- bioavailability [24]: 0.2%
- pKi (Renin [25]): 9.15

Structure (SMILES): N=C(N)c1ccc(CNC(=O)[C@@H]2CCN2C(=O)[C@H](NCC(=O)O)C2CCCCC2)cc1
- pKi [26]: 8.70

Structure (SMILES): CCOC(=O)/C=C/[C@H](CCC(N)=O)NC(=O)[C@H](Cc1ccc(C)cc1)NC(=O)[C@@H](NC(=O)SC1CCCC1)C(C)(C)C
- pEC50 [27]: 7.25

Structure (SMILES): CC(C)C[C@H](NC(=O)OCc1ccccc1)C(=O)NNC(=O)NNC(=O)[C@H](CC(C)C)NC(=O)OCc1ccccc1
- Ki obs / [I] [28]: 3.1 M⁻¹ s⁻¹

Structure (SMILES): CCCCNC(=O)C[C@H](O)[C@H](CC(C)C)NC(=O)[C@@H](NC(=O)Cc1ccc2ccccc2c1)C(C)CC (some centres undefined)
- pIC50 (Cathepsin D [29]): 6.49
- pIC50 (Plasmepsin II): 7.30
